Assay results from PubChem BioAssay AID330 (DTP/NCI, 2004).
Several values for one entry are separate records, joined by “and”; a condition that tells them apart may be missing. Identical values can stand only once. Inconclusive results and toxic doses are left out. The calls were made as follows: active = survival T/C of 150% or more; inactive = T/C below 125% in these data.

Test system: P388 leukemia ip, CD2F1 mice, survival T/C
Experiment: NCI In Vivo Anticancer Drug Screen. Data for tumor model P388 Leukemia (intraperitoneal) in CD2F1 (CDF1) mice
Conditions: endpoint: median survival time, higher = longer survival
Outline: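 Mice carrying the transplanted tumor received test compound or vehicle. Survival was recorded in each group, and the value is the treated-group measurement divided by that of the vehicle-treated control group.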

[1] = dose: 60.0 mg/kg/injection, schedule: Q01DX005 (ip), vehicle: saline with Tween-80
[2] = dose: 120.0 mg/kg/injection, schedule: Q01DX005 (ip), vehicle: saline with Tween-80
[3] = dose: 240.0 mg/kg/injection, schedule: Q01DX005 (ip), vehicle: saline with Tween-80
[4] = dose: 100.0 mg/kg/injection, schedule: Q04DX003 (ip), vehicle: saline with Tween-80
[5] = dose: 200.0 mg/kg/injection, schedule: Q04DX003 (ip), vehicle: saline with Tween-80
[6] = dose: 60.0 mg/kg/injection, schedule: Q01DX005 (ip), vehicle: Klucel (hydroxypropylcellulose) (HPC)
[7] = dose: 120.0 mg/kg/injection, schedule: Q01DX005 (ip), vehicle: Klucel (hydroxypropylcellulose) (HPC)
[8] = dose: 240.0 mg/kg/injection, schedule: Q01DX005 (ip), vehicle: Klucel (hydroxypropylcellulose) (HPC)
[9] = dose: 50.0 mg/kg/injection, schedule: Q01DX005 (ip), vehicle: saline with Tween-80
[10] = dose: 100.0 mg/kg/injection, schedule: Q01DX005 (ip), vehicle: saline with Tween-80
[11] = dose: 200.0 mg/kg/injection, schedule: Q01DX005 (ip), vehicle: saline with Tween-80
[12] = dose: 50.0 mg/kg/injection, schedule: Q01DX005 (ip), vehicle: Klucel (hydroxypropylcellulose) (HPC)
[13] = dose: 30.0 mg/kg/injection, schedule: Q01DX005 (ip), vehicle: saline with Tween-80
[14] = dose: 50.0 mg/kg/injection, schedule: Q01DX009 (ip), vehicle: saline with Tween-80
[15] = dose: 100.0 mg/kg/injection, schedule: Q01DX009 (ip), vehicle: saline with Tween-80
[16] = dose: 200.0 mg/kg/injection, schedule: Q01DX009 (ip), vehicle: saline with Tween-80
[17] = dose: 50.0 mg/kg/injection, schedule: Q01DX009 (ip), vehicle: Klucel (hydroxypropylcellulose) (HPC)
[18] = dose: 100.0 mg/kg/injection, schedule: Q01DX009 (ip), vehicle: Klucel (hydroxypropylcellulose) (HPC)
[19] = dose: 200.0 mg/kg/injection, schedule: Q01DX009 (ip), vehicle: Klucel (hydroxypropylcellulose) (HPC)

Measured: T/C

CSc1nc(SC)c2nc(SC)sc2n1
inactive: dose: 50.0 mg/kg/injection, schedule: Q01DX001 (ip), vehicle: saline with Tween-80 90 % of control | dose: 100.0 mg/kg/injection, schedule: Q01DX001 (ip), vehicle: saline with Tween-80 88 % of control and 90 % of control | dose: 200.0 mg/kg/injection, schedule: Q01DX001 (ip), vehicle: saline with Tween-80 90 % of control | dose: 400.0 mg/kg/injection, schedule: Q01DX001 (ip), vehicle: saline with Tween-80 87 % of control

Cc1ccc(NC(=O)CCCC(=O)C(C#N)c2nc3ccccc3s2)cc1C (configuration not stated)
inactive: [1] 100 % of control | [2] 98 % of control | [3] 98 % of control

COc1ccc(/C=N/N2CN(C(C)C(=O)O)P(N(CCO)CCO)N=C2N)cc1OC (configuration not stated)
inactive: [1] 104 % of control | [2] 99 % of control | [3] 99 % of control

Cc1cnc2c(N)nn(-c3ccccc3)c2n1
inactive: [4] 95 % of control | [5] 105 % of control

CCCCCCCCCCCCn1ccnc1
inactive: [4] 102 % of control | [5] 97 % of control

CC(=O)N1C(=O)CC23c4cccc([N+](=O)[O-])c4C(=O)N2CCCN13 (configuration not stated)
inactive: [6] 97 % of control | [7] 97 % of control | [8] 91 % of control

C=C(C)C1Oc2ccc(C(C)=O)cc2C1O (configuration not stated)
inactive: dose: 8.8 mg/kg/injection, schedule: Q01DX009 (ip), vehicle: saline 103 % of control | dose: 17.5 mg/kg/injection, schedule: Q01DX009 (ip), vehicle: saline 89 % of control | dose: 35.0 mg/kg/injection, schedule: Q01DX009 (ip), vehicle: saline 100 % of control

CCc1ccc2c(c1OCOC)CCC2
inactive: dose: 100.0 mg/kg/injection, schedule: Q04DX002 (ip), vehicle: saline with Tween-80 100 % of control | dose: 200.0 mg/kg/injection, schedule: Q04DX002 (ip), vehicle: saline with Tween-80 100 % of control | dose: 400.0 mg/kg/injection, schedule: Q04DX002 (ip), vehicle: saline with Tween-80 95 % of control

OCCN(CCO)c1ncnc2nc[nH]c12
inactive: [9] 88 % of control | [10] 96 % of control | [11] 98 % of control

c1ccc2c(c1)c1c(c3ccccc32)CN2CCCC2C1 (configuration not stated)
inactive: [12] 105 % of control | dose: 100.0 mg/kg/injection, schedule: Q01DX005 (ip), vehicle: Klucel (hydroxypropylcellulose) (HPC) 101 % of control | dose: 200.0 mg/kg/injection, schedule: Q01DX005 (ip), vehicle: Klucel (hydroxypropylcellulose) (HPC) 110 % of control

C[C@@]12C[C@@H](Br)[C@H](Br)C[C@]1(C)O2
inactive: [9] 104 % of control | [10] 106 % of control | [11] 101 % of control

CCOC(=O)c1c(O)c(C)c(=O)n2c1[nH]c1cc(C)c(C)cc12
inactive: [1] 93 % of control | [2] 98 % of control

O=C(O)C1SCCCS1
inactive: [1] 100 % of control | [2] 98 % of control | [3] 100 % of control

O=S(=O)(F)c1ccc(Cl)cc1C[P+](c1ccccc1)(c1ccccc1)c1ccccc1
inactive: dose: 25.0 mg/kg/injection, schedule: Q01DX001 (ip), vehicle: Klucel (hydroxypropylcellulose) (HPC) 115 % of control and 120 % of control

OCC1CC2C3CC(CO)C(C3)C2C1 (configuration not stated)
inactive: [1] 105 % of control | [2] 100 % of control | [3] 98 % of control

O=C1CN(c2ccccc2)C(=O)C1C(=O)Nc1ccc(Cl)c(Cl)c1 (configuration not stated)
inactive: [13] 117 % of control | [1] 121 % of control and 123 % of control | [3] 90 % of control

COc1ccc(NC(=O)/C=C\C(=O)O)cc1OC
inactive: [9] 96 % of control | [10] 96 % of control | [11] 96 % of control

O=C(CCCc1ccccc1)N1CCOCC1
inactive: dose: 50.0 mg/kg/injection, schedule: Q01DX001 (ip), vehicle: saline sonified 90 % of control | dose: 100.0 mg/kg/injection, schedule: Q01DX001 (ip), vehicle: saline sonified 109 % of control | dose: 200.0 mg/kg/injection, schedule: Q01DX001 (ip), vehicle: saline sonified 100 % of control

CC(=O)Nc1ccc(C(C)=O)cc1
inactive: [14] 93 % of control | [15] 89 % of control | [16] 94 % of control

CCOC(=O)C(NC(N)=O)C(=O)OCC
inactive: dose: 25.0 mg/kg/injection, schedule: Q01DX009 (ip), vehicle: water 89 % of control | dose: 50.0 mg/kg/injection, schedule: Q01DX009 (ip), vehicle: water 99 % of control | dose: 100.0 mg/kg/injection, schedule: Q01DX009 (ip), vehicle: water 100 % of control | dose: 200.0 mg/kg/injection, schedule: Q01DX009 (ip), vehicle: water 105 % of control | dose: 400.0 mg/kg/injection, schedule: Q01DX009 (ip), vehicle: water 91 % of control

S=C(C(=S)N1CCOCC1)N1CCOCC1
inactive: dose: 25.0 mg/kg/injection, schedule: Q01DX009 (ip), vehicle: Klucel (hydroxypropylcellulose) (HPC) 110 % of control | dose: 50.0 mg/kg/injection, schedule: Q01DX001 (ip), vehicle: saline 100 % of control | [17] 99 % of control and 101 % of control and 112 % of control | dose: 100.0 mg/kg/injection, schedule: Q01DX001 (ip), vehicle: saline 107 % of control | [18] 101 % of control and 114 % of control | dose: 200.0 mg/kg/injection, schedule: Q01DX001 (ip), vehicle: saline 112 % of control | [19] 103 % of control and 110 % of control and 123 % of control

CCOC(=O)c1ccc2cc(C)c3ccc(N)nc3n2c1=O
inactive: dose: 25.0 mg/kg/injection, schedule: Q01DX005 (ip), vehicle: saline with Tween-80 93 % of control | [9] 98 % of control | [10] 92 % of control and 93 % of control | [11] 88 % of control

O=S(=O)(F)c1ccc(N=C=S)cc1
inactive: dose: 6.25 mg/kg/injection, schedule: Q04DX003 (ip), vehicle: saline with Tween-80 100 % of control | dose: 12.5 mg/kg/injection, schedule: Q04DX003 (ip), vehicle: saline with Tween-80 104 % of control | dose: 25.0 mg/kg/injection, schedule: Q04DX003 (ip), vehicle: saline with Tween-80 109 % of control

COc1cccc(C)c1C1CC2CCCN2O1 (configuration not stated)
inactive: [17] 105 % of control | [18] 106 % of control | [19] 89 % of control

COc1ccc(C(c2cc(C(C)(C)C)c(O)c(C(C)(C)C)c2)N2CCCCC2)cc1 (configuration not stated)
inactive: [9] 102 % of control | [10] 109 % of control | [11] 112 % of control

C/C(CC(C)C)=N\NC(=O)CNC(=O)c1ccccc1
inactive: [1] 100 % of control | [2] 106 % of control | [3] 95 % of control

COC1/C=C/OC2(C)Oc3c(C)c(O)c4c(c3C2=O)C(=O)C(CO)=C(NC(=O)/C(C)=C\C=C\C(C)C(O)C(C)C(O)C(C)C(OC(C)=O)C1C)C4=O (configuration not stated)
inactive: [14] 104 % of control | [15] 99 % of control | [16] 112 % of control

Cc1ccc(NC(=O)Oc2ccccc2F)c([N+](=O)[O-])c1
inactive: [14] 115 % of control | [15] 115 % of control | [16] 115 % of control

CCc1c(C)nc2cc(-c3cc(C)n4c(=O)c(CC)c(C)nc4c3)cc(C)n2c1=O
inactive: [6] 90 % of control | [7] 96 % of control | [8] 100 % of control

Cc1nn(-c2ccccc2)c2c1C(c1ccccc1)C(C#N)=C(N)O2 (configuration not stated)
inactive: [17] 100 % of control | [18] 100 % of control | [19] 100 % of control

CCOC(=O)C1=C(C(=O)c2ccc(C)cc2)C(c2c(Cl)cccc2Cl)C(C(=O)c2ccc(C)cc2)=C(C(=O)OCC)N1
inactive: [13] 104 % of control | [1] 102 % of control | [2] 104 % of control and 90 % of control | [3] 88 % of control

O=C1C2=Cc3ccccc3CN2Cc2ccccc21
inactive: dose: 18.75 mg/kg/injection, schedule: Q01DX009 (ip), vehicle: saline with Tween-80 111 % of control | dose: 37.5 mg/kg/injection, schedule: Q01DX009 (ip), vehicle: saline with Tween-80 90 % of control

CSc1nc(N)c(C(=O)c2sc(SC)nc2N)s1
inactive: dose: 12.5 mg/kg/injection, schedule: Q01DX005 (ip), vehicle: Klucel (hydroxypropylcellulose) (HPC) 100 % of control | dose: 25.0 mg/kg/injection, schedule: Q01DX005 (ip), vehicle: Klucel (hydroxypropylcellulose) (HPC) 92 % of control | [12] 90 % of control and 97 % of control

O=[N+]([O-])/C=C/c1cc2ccc3ccccc3c2[nH]1
inactive: [1] 94 % of control | [2] 89 % of control | [3] 102 % of control

NC(=O)CNCC1Cc2ccccc21 (configuration not stated)
inactive: dose: 60.0 mg/kg/injection, schedule: Q01DX005 (ip), vehicle: saline 102 % of control | dose: 120.0 mg/kg/injection, schedule: Q01DX005 (ip), vehicle: saline 98 % of control
